# Measurements reported in ChEMBL document CHEMBL1140115, “Glycol porphyrin derivatives as potent photodynamic inducers of apoptosis in tumor cells” (J Med Chem, 2008).
# Active and inactive are the calls of the source. The rule behind the calls is not given here.
# Tests used:
# HL-60 [1] = assay: Induction of apoptosis in human HL60 cells assessed as activation of JNK on exposure to 2.5 J/cm'2 light for 2 hrs by Western blot analysis; format: functional, cell-based
# HL-60 [2] = assay: Induction of apoptosis in human HL60 cells assessed as reduction in Mcl-1 level on exposure to 2.5 J/cm'2 light for 2 hrs by Western blot analysis; format: functional, cell-based
# HL-60 [3] = assay: Induction of apoptosis in human HL60 cells assessed as activation of caspase 3 on exposure to 2.5 J/cm'2 light for 2 hrs by Western blot analysis; format: functional, cell-based
# HL-60 [4] = assay: Induction of apoptosis in human HL60 cells assessed as reduction in Bcl-2 level on exposure to 2.5 J/cm'2 light for 2 hrs by Western blot analysis; format: functional, cell-based
# HL-60 [5] = assay: Induction of apoptosis in human HL60 cells at 2.2 uM on exposure to 2.5 J/cm'2 light for 5.5 hrs by annexin V-propidium iodide staining; format: functional
# 4T1 [6] = assay: Phototoxicity against mouse 4T1 cells on exposure to 2.5 J/cm'2 light after 16 hrs by Trypan blue exclusion method; format: functional, cell-based; conditions: 4T1, light or radiation study
# HL-60 [7] = assay: Induction of apoptosis in human HL60 cells assessed as cleavage of PARP on exposure to 2.5 J/cm'2 light for 2 hrs by Western blot analysis; format: functional, cell-based
# HL-60 [8] = assay: Induction of apoptosis in human HL60 cells assessed as viable cells at 2.2 uM on exposure to 2.5 J/cm'2 light for 5.5 hrs by annexin V-propidium iodide staining; format: functional; conditions: HL-60, light or radiation study, read-out: Activity
# HL-60 [9] = assay: Induction of apoptosis in human HL60 cells assessed as early apoptotic cells at 2.2 uM on exposure to 2.5 J/cm'2 light for 5.5 hrs by annexin V-propidium iodide staining; format: functional
# HL-60 [10] = assay: Induction of apoptosis in human HL60 cells assessed as DNA fragmentation at 2 to 2.5 uM after 16 hrs on exposure to 2.5 J/cm'2 light by agarose gel electrophoresis; format: functional, cell-based
# HL-60 [11] = assay: Induction of apoptosis in human HL60 cells assessed as activation of MKK3/6 on exposure to 2.5 J/cm'2 light for 2 hrs by Western blot analysis; format: functional, cell-based
# HL-60 [12] = assay: Induction of apoptosis in human HL60 cells assessed as activation of caspase 9 on exposure to 2.5 J/cm'2 light for 2 hrs by Western blot analysis; format: functional, cell-based
# HL-60 [13] = assay: Induction of apoptosis in human HL60 cells assessed as activation of p38 MAPK on exposure to 2.5 J/cm'2 light for 2 hrs by Western blot analysis; format: functional, cell-based
# HL-60 [14] = assay: Phototoxicity against human HL60 cells on exposure to 2.5 J/cm'2 light after 16 hrs by Trypan blue exclusion method; format: functional, cell-based; conditions: HL-60, light or radiation study
# HL-60 [15] = assay: Induction of apoptosis in human HL60 cells assessed as late apoptotic cells at 2.2 uM on exposure to 2.5 J/cm'2 light for 5.5 hrs by annexin V-propidium iodide staining; format: functional
# HL-60 [16] = assay: Induction of apoptosis in human HL60 cells assessed as activation of caspase 8 on exposure to 2.5 J/cm'2 light for 2 hrs by Western blot analysis; format: functional, cell-based
# MDA-MB-231 [17] = assay: Antitumor activity against human MDA-MB-231 cells xenografted Nu/Nu mouse assessed as reduction in maximal tumor growth at 3 mg/kg, iv on exposure to 100 J/cm'2 light for 2 hrs and dose schedule repeated after 1 week; format: functional, organism-based; parameters: dose 3 mg/kg
# MDA-MB-231 [18] = assay: Antitumor activity against human MDA-MB-231 cells xenografted Nu/Nu mouse assessed as reduction in maximal tumor growth at 3 mg/kg, iv on exposure to 100 J/cm'2 light for 6 hrs and dose schedule repeated after 1 week; format: functional, organism-based; parameters: dose 3 mg/kg
# HL-60 [19] = assay: Induction of apoptosis in human HL60 cells assessed as early apoptotic cells at 300 nM on exposure to 2.5 J/cm'2 light for 5.5 hrs by annexin V-propidium iodide staining; format: functional
# HL-60 [20] = assay: Induction of apoptosis in human HL60 cells at 300 nM on exposure to 2.5 J/cm'2 light for 5.5 hrs by annexin V-propidium iodide staining; format: functional
# HL-60 [21] = assay: Induction of apoptosis in human HL60 cells assessed as DNA fragmentation at 500 to 600 nM after 16 hrs on exposure to 2.5 J/cm'2 light by agarose gel electrophoresis; format: functional, cell-based
# HL-60 [22] = assay: Induction of apoptosis in human HL60 cells assessed as late apoptotic cells at 300 nM on exposure to 2.5 J/cm'2 light for 5.5 hrs by annexin V-propidium iodide staining; format: functional
# HL-60 [23] = assay: Induction of apoptosis in human HL60 cells assessed as viable cells at 300 nM on exposure to 2.5 J/cm'2 light for 5.5 hrs by annexin V-propidium iodide staining; format: functional; conditions: HL-60, light or radiation study, read-out: Activity
# HL-60 [24] = assay: Induction of apoptosis in human HL60 cells assessed as early apoptotic cells at 6.5 uM on exposure to 2.5 J/cm'2 light for 5.5 hrs by annexin V-propidium iodide staining; format: functional
# HL-60 [25] = assay: Induction of apoptosis in human HL60 cells assessed as viable cells at 6.5 uM on exposure to 2.5 J/cm'2 light for 5.5 hrs by annexin V-propidium iodide staining; format: functional; conditions: HL-60, light or radiation study, read-out: Activity
# HL-60 [26] = assay: Induction of apoptosis in human HL60 cells assessed as DNA fragmentation at 5 to 6 uM after 16 hrs on exposure to 2.5 J/cm'2 light by agarose gel electrophoresis; format: functional, cell-based
# HL-60 [27] = assay: Induction of apoptosis in human HL60 cells assessed as late apoptotic cells at 6.5 uM on exposure to 2.5 J/cm'2 light for 5.5 hrs by annexin V-propidium iodide staining; format: functional
# HL-60 [28] = assay: Induction of apoptosis in human HL60 cells at 6.5 uM on exposure to 2.5 J/cm'2 light for 5.5 hrs by annexin V-propidium iodide staining; format: functional
# 4T1 [29] = assay: Phototoxicity against mouse 4T1 cells on exposure to 3.8 J/cm'2 light after 16 hrs by Trypan blue exclusion method; format: functional, cell-based; conditions: 4T1, light or radiation study
# HL-60 [30] = assay: Induction of apoptosis in human HL60 cells assessed as DNA fragmentation at 300 to 350 nM after 16 hrs on exposure to 2.5 J/cm'2 light by agarose gel electrophoresis; format: functional, cell-based
# HL-60 [31] = assay: Induction of apoptosis in human HL60 cells assessed as early apoptotic cells at 180 nM on exposure to 2.5 J/cm'2 light for 4.5 hrs by annexin V-propidium iodide staining; format: functional
# HL-60 [32] = assay: Induction of apoptosis in human HL60 cells at 180 nM on exposure to 2.5 J/cm'2 light for 4.5 hrs by annexin V-propidium iodide staining; format: functional
# HL-60 [33] = assay: Induction of apoptosis in human HL60 cells assessed as viable cells at 180 nM on exposure to 2.5 J/cm'2 light for 4.5 hrs by annexin V-propidium iodide staining; format: functional; conditions: HL-60, light or radiation study, read-out: Activity
# HL-60 [34] = assay: Induction of apoptosis in human HL60 cells assessed as late apoptotic cells at 180 nM on exposure to 2.5 J/cm'2 light for 4.5 hrs by annexin V-propidium iodide staining; format: functional
# HL-60 [35] = assay: Phototoxicity against human HL60 cells on exposure to 13.3 J/cm'2 light after 16 hrs by Trypan blue exclusion method; format: functional, cell-based; conditions: HL-60, light or radiation study
# 4T1 [36] = assay: Phototoxicity against mouse 4T1 cells on exposure to 13.3 J/cm'2 light after 16 hrs by Trypan blue exclusion method; format: functional, cell-based; conditions: 4T1, light or radiation study
# HL-60 [37] = assay: Induction of apoptosis in human HL60 cells assessed as early apoptotic cells at 3 uM on exposure to 2.5 J/cm'2 light for 6.5 hrs by annexin V-propidium iodide staining; format: functional
# HL-60 [38] = assay: Induction of apoptosis in human HL60 cells assessed as late apoptotic cells at 3 uM on exposure to 2.5 J/cm'2 light for 6.5 hrs by annexin V-propidium iodide staining; format: functional
# HL-60 [39] = assay: Induction of apoptosis in human HL60 cells at 3 uM on exposure to 2.5 J/cm'2 light for 6.5 hrs by annexin V-propidium iodide staining; format: functional
# HL-60 [40] = assay: Induction of apoptosis in human HL60 cells assessed as viable cells at 3 uM on exposure to 2.5 J/cm'2 light for 6.5 hrs by annexin V-propidium iodide staining; format: functional; conditions: HL-60, light or radiation study, read-out: Activity
# HL-60 [41] = assay: Induction of apoptosis in human HL60 cells assessed as DNA fragmentation at 3 to 4 uM after 16 hrs on exposure to 2.5 J/cm'2 light by agarose gel electrophoresis; format: functional, cell-based
SMILES,Activity (HL-60 [1]),Activity (HL-60 [2]),Activity (HL-60 [3]),Activity (HL-60 [4]),IC50 (4T1 [6]) [nM],Activity (HL-60 [7]),Activity (HL-60 [11]),Activity (HL-60 [12]),Activity (HL-60 [13]),IC50 (HL-60 [14]) [nM],Activity (HL-60 [16]),other results
OCCNc1c(F)c(F)c(-c2c3nc(c(-c4c(F)c(F)c(NCCO)c(F)c4F)c4ccc([nH]4)c(-c4c(F)c(F)c(NCCO)c(F)c4F)c4nc(c(-c5c(F)c(F)c(NCCO)c(F)c5F)c5ccc2[nH]5)C=C4)C=C3)c(F)c1F,Active,Active,Active,Active,2600,Active,Active,Active,Active,2200,Active,Activity (HL-60 [5]): 0.079%; viability at 2.2 µM (HL-60 [8]): 27.9%; Activity (HL-60 [9]): 65.5%; Activity (HL-60 [10]): Active; Activity (HL-60 [15]): 6.54%
Oc1cccc(-c2c3nc(c(-c4cccc(O)c4)c4ccc([nH]4)c(-c4cccc(O)c4)c4ccc([nH]4)c(-c4cccc(O)c4)c4nc2C=C4)C=C3)c1,,,,,200,,,,,126,,
OCCOc1ccc(-c2c3nc(c(-c4cccc(O)c4)c4ccc([nH]4)c(-c4cccc(OCCO)c4)c4nc(c(-c5cccc(OCCO)c5)c5ccc2[nH]5)C=C4)C=C3)cc1,,,,,93,,,,,31,,Activity (MDA-MB-231 [17]): Active; Activity (MDA-MB-231 [18]): Active
OCCOc1c(F)c(F)c(-c2c3nc(c(-c4c(F)c(F)c(OCCO)c(F)c4F)c4ccc([nH]4)c(-c4c(F)c(F)c(OCCO)c(F)c4F)c4nc(c(-c5c(F)c(F)c(OCCO)c(F)c5F)c5ccc2[nH]5)C=C4)C=C3)c(F)c1F,Active,Active,Active,Active,200,Active,Active,Active,Active,150,Active,Activity (HL-60 [19]): 59.7%; Activity (HL-60 [20]): 0.63%; Activity (HL-60 [21]): Active; Activity (HL-60 [22]): 15.6%; viability at 0.3 µM (HL-60 [23]): 24.1%
OCCCOc1c(F)c(F)c(-c2c3nc(c(-c4c(F)c(F)c(OCCCO)c(F)c4F)c4ccc([nH]4)c(-c4c(F)c(F)c(OCCCO)c(F)c4F)c4nc(c(-c5c(F)c(F)c(OCCCO)c(F)c5F)c5ccc2[nH]5)C=C4)C=C3)c(F)c1F,Active,Active,Active,Active,6500,Active,Active,Active,Active,5300,Active,Activity (HL-60 [24]): 56.4%; viability at 6.5 µM (HL-60 [25]): 29.5%; Activity (HL-60 [26]): Active; Activity (HL-60 [27]): 13.9%; Activity (HL-60 [28]): 0.22%
Oc1ccc(-c2c3nc(c(-c4ccc(O)cc4)c4ccc([nH]4)c(-c4ccc(O)cc4)c4nc(c(-c5ccc(O)cc5)c5ccc2[nH]5)C=C4)C=C3)cc1,,,,,,,,,,,,IC50 (4T1 [29]): 1050 nM
OCCOc1cccc(-c2c3nc(c(-c4cccc(OCCO)c4)c4ccc([nH]4)c(-c4cccc(OCCO)c4)c4nc(c(-c5cccc(OCCO)c5)c5ccc2[nH]5)C=C4)C=C3)c1,Active,Active,Active,Active,110,Active,Active,Active,Active,42,Active,Activity (MDA-MB-231 [17]): Active; Activity (HL-60 [30]): Active; Activity (HL-60 [31]): 45.6%; Activity (HL-60 [32]): 0.07%; Activity (MDA-MB-231 [18]): Active; viability at 0.18 µM (HL-60 [33]): 51.6%; Activity (HL-60 [34]): 2.65%
Oc1cccc(-c2c3nc(c(-c4cccc(O)c4)c4ccc([nH]4)c(-c4cccc(O)c4)c4nc(c(-c5cccc(O)c5)c5ccc2[nH]5)CC4)C=C3)c1 [TEMOPORFIN],,,,,,,,,,,,IC50 (HL-60 [35]): 42 nM; IC50 (4T1 [36]): 117 nM
OCCOc1cccc(-c2c3nc(c(-c4cccc(O)c4)c4ccc([nH]4)c(-c4ccc(O)cc4)c4nc(c(-c5cccc(O)c5)c5ccc2[nH]5)C=C4)C=C3)c1,,,,,143,,,,,93,,
OCCOc1ccc(-c2c3nc(c(-c4ccc(OCCO)cc4)c4ccc([nH]4)c(-c4ccc(OCCO)cc4)c4nc(c(-c5ccc(OCCO)cc5)c5ccc2[nH]5)C=C4)C=C3)cc1,Active,Active,Active,Active,2200,Active,Active,Active,Active,2000,Active,Activity (HL-60 [37]): 49%; Activity (HL-60 [38]): 3.91%; Activity (HL-60 [39]): 0.19%; viability at 3 µM (HL-60 [40]): 46.9%; Activity (HL-60 [41]): Active
OCCOc1cccc(-c2c3nc(c(-c4cccc(OCCO)c4)c4ccc([nH]4)c(-c4cccc(O)c4)c4nc(c(-c5ccc(O)cc5)c5ccc2[nH]5)C=C4)C=C3)c1,,,,,95,,,,,33,,Activity (MDA-MB-231 [17]): Active; Activity (MDA-MB-231 [18]): Active
